Data published in EP0327365B1, “Improvements in or relating to modified haptens useful as imaging and therapeutic agents” (HYBRITECH INCORPORATED, priority 1988, dated 1989).

Assays:
[1] = tested on: monoclonal antibody CHA255; assay: Determination of hapten-antibody dissociation rates; assay type: binding, BALB/c mice; conditions: 22°C; indium complex of hapten from CHA255 after 100 fold excess of indium-115 loaded hapten
Protocol: Hapten-antibody dissociation rates were determined using monoclonal antibody CHA255, prepared as described in Example 2A, by measuring the quantity of ¹¹¹In³⁺ chelate released from the antibody hapten complex as a function of time after addition of a 100 fold excess (over antibody binding sites) of indium-115 loaded hapten. Thus, for each hapten, a 700 »l solution was prepared containing: antibody at a concentration of 160 nM; indium loaded hapten, trace labeled with ¹¹¹In (total concentration = 160 nM); normal human serum albumin at a total concentration of 1.5 mg/mL; and isotonic phosphate buffered saline, (10 mM PO₄²⁻, 150 mM NaCl, pH 7.2). Indium-115 loaded hapten was added to a final Concentration of […]. Reactions were stirred by placing the sample containers ir a rack mounted on a vortexer head.
At various times after addition of the excess hapten, […] portions of the reaction solutions were transferred to Centrifree tubes (Amicon Corperation, Danvers, Massachusetts) and centrifuged at 1500xg for eight to ten minutes. The reaction time was taken to be the time between addition of the excess hapten and the time the centrifuge reached the desired velocity. Six timepoints, each in duplicate, were obtained over a range of about two reaction half-lives for each rate constant determination. A 200 »l portion from each centrifuged and uncentrifuged solution was then counted for ¹¹¹In. The relative concentration of free hapten was taken to be the ratio of counts in the centrifuged solution to the uncentrifuged solution at each timepoint. Times were recorded to the nearest tenth of a minute.
Room temperature rate constants were measured without the aid of a constant temperature bath. The ambient temperature remained at 22°±1 C.
Rate constants and standard deviations were obtained from a plot of the logarithm of relative complex concentration vs. time. Data were analyzed using the linear regression module of the RS/1 Program (BBN Software Products Corporation, Cambridge, Massachusetts).
Control samples were included in each experiment to determine: A) that the initial condition of 100% of labeled hapten bound to antibody was met, and B) that in the absence of antibody, 100% of counts were able to penetrate the Centrifree membrane. […]

T-380 tumors = assay: Hapten biodistribution, premix protocol with bifunctional antibody ECH037.2; assay type: in vivo, nude mice; design: TOTAL RECOV: unit not given here; conditions: for % DOSE PER GRAM, KIDNEY / % DOSE PER GRAM, LIVER / % DOSE PER GRAM, TUMOR / FECES / TOTAL RECOV / URINE / % DOSE PER GRAM, BLOOD / TUMOR/BLOOD: premix with 20 µg ECH037.2; for % DOSE PER GRAM, BLOOD: 111In-labeled hapten i.v.; for TUMOR/BLOOD: ratio; for Percent Injected Dose in Feces: premix protocol (Table VI); for amount of hapten in the tumor / injected material excreted in the feces: premix protocol; for injected material excreted in the feces: 48 hrs. post injection
Protocol: Two protocols were used for examining the biodistribution of the derivatized haptens in the presence of the bifunctional antibody ECH037.2. In a premix protocol, ECH037.2 and the derivatized hapten were combined prior to injection in the animals. In the prelocalization protocol, ECH037.2 was injected into the animals, and the antibody was allowed to prelocalize for 24 hours prior to injection of the radiolabeled hapten.
Biodistribution studies were performed in nude mice carrying subcutaneous implants of the human colon carcinoma cell line T-380 which expresses the carcinoembryonic antigen (CEA) recognized by ECH037.2. Briefly, Balb/C Nu/Nu mice were injected subcutaneously with a minced preparation of T-380 tumor implants and maintained for approximately two weeks, or until the tumor implant had grown to a size of approximately 0.5 grams as described by Hagan, P.L., et al. J. Nuc. Med., 26 1418-1423 (1985). Mice were kept in a sterile environment to prevent complications due to bacterial or viral infections. Biodistributions were performed as described by Halpern, S., et al., Cancer Res. 43, 5347-5355 (1983). Briefly, the radiolabeled haptens were injected intravenously in […], and the pharmacokinetics were evaluated at several time points post-injection. At these times, mice were sacrificed and weighed. Organs were removed, their weight recorded, and each organ was then washed in sterile PBS, pH 7.0, and fixed in formalin solution. Samples of blood, urine and feces also were collected and their weight similarly recorded. The organs, or a portion thereof, were transferred to clean tubes and their radioactive content was determined in a well-type gamma-counter.
Relative radioactive content of each organ was expressed as a percentage of injected dose per organ.
To indium-label the haptens of the invention 10 »l of 0.1 mM ligand was combined with X »l of ¹¹¹InCl₃ (in 50 mM HCl) and (x+10) »l of 0.26 M ammonium citrate, pH 6.0. X is calculated by the following equation: X = (200 »Ci)/(A »Ci/»l) [formula] where A is the specific activity of the ¹¹¹In.
The labeling was done in an acid-washed microfuge tube. After combining all of the components above, the solution was vortexed and allowed to stand at room temperature for 15 minutes.
Incorporation of the ¹¹¹In into the chelating agent was determined by TLC on silica in a methanol/aqueous ammonium acetate solvent system as described by Meares, et al. (Anal. Biochem., 142, 68-75 (1984)). Greater than 95% incorporation of the radioactivity into the chelate was required for the sample to be submitted for a biodistribution assay.
Prior to injection the ¹¹¹In-labeled hapten was diluted into freshly prepared isotonic sodium bicarbonate (1.39% w/v) containing 1 mg/ml normal human serum albumin (Buminate, 25% solution, Travenol Laboratories, Glendale, California) to which the bifunctional antibody had been added. The final composition of the solution was 0.2 mg/ml ECH037.2, 0.5 »M chelate, 0.1 »Ci/»l ¹¹¹In, all in a volume of 2.0 ml. For the biodistribution studies, 100 »l of the solution was injected into the tail vein of each animal.

| % DOSE PER GRAM, KIDNEY (T-380 tumors; 24 hours) [% DOSE PER GRAM] | % DOSE PER GRAM, LIVER (T-380 tumors; 24 hours) [% DOSE PER GRAM] | % DOSE PER GRAM, TUMOR (T-380 tumors; 24 hours) [% DOSE PER GRAM] | FECES (T-380 tumors; 24 hours) | TOTAL RECOV (T-380 tumors; 24 hours) | URINE (T-380 tumors; 24 hours) | % DOSE PER GRAM, BLOOD (T-380 tumors; 24 hours) [% DOSE PER GRAM] | TUMOR/BLOOD (T-380 tumors; 24 hours) | Percent Injected Dose in Feces (T-380 tumors; 24 hrs.) [Percent Injected Dose] | % DOSE PER GRAM, KIDNEY (T-380 tumors; 48 hours) [% DOSE PER GRAM] | % DOSE PER GRAM, LIVER (T-380 tumors; 48 hours) [% DOSE PER GRAM] | % DOSE PER GRAM, TUMOR (T-380 tumors; 48 hours) [% DOSE PER GRAM] | FECES (T-380 tumors; 48 hours) | TOTAL RECOV (T-380 tumors; 48 hours) | URINE (T-380 tumors; 48 hours) | % DOSE PER GRAM, BLOOD (T-380 tumors; 48 hours) [% DOSE PER GRAM] | TUMOR/BLOOD (T-380 tumors; 48 hours) | Percent Injected Dose in Feces (T-380 tumors; 48 hrs.) [Percent Injected Dose] | amount of hapten in the tumor (T-380 tumors; 24 hrs.) | SMILES | t1/2, Dissociation Half-Lives [1] [h] | also measured |
| --- | --- | --- | --- | --- | --- | --- | --- | --- | --- | --- | --- | --- | --- | --- | --- | --- | --- | --- | --- | --- | --- |
| 2.5 | 3.3 | 11.5 | 6.9% of total injected dose | 50.8 | 20.0% of total injected dose | 11.8 | 0.97 | 6.9 | 1.5 | 2.0 | 12.1 | 21.1% of total injected dose | 68.3 | 30.4% of total injected dose | 7.9 | 1.53 | 21.1 |  | O=C(O)CCCNC(=S)Nc1ccc(CC(CN(CC(=O)O)CC(=O)O)N(CC(=O)O)CC(=O)O)cc1 (stereo not drawn) [BATUBE] | 1.24 |  |
| 1.7 | 3.4 | 5.3 | 16.8% of total injected dose | 63.8 | 22.0% of total injected dose | 9.0 | 0.59 | 16.8 | 1.2 | 3.8 | 5.7 | 26.5% of total injected dose | 69.3 | 27.0% of total injected dose | 5.8 | 0.98 | 26.5 | 5.3 percent injected dose/gram | CCCCNC(=S)Nc1ccc(CC(CN(CC(=O)O)CC(=O)O)N(CC(=O)O)CC(=O)O)cc1 (stereo not drawn) [BUTUBE] | 1.51 | injected material excreted in the feces (T-380 tumors): 26.5% of the injected material; amount of hapten in the tumor (T-380 tumors; 48 hrs.): 5.7 percent injected dose/gram |
| 2.7 | 3.4 | 9.0 | 10.6% of total injected dose | 52.0 | 14.2% of total injected dose | 13.0 | 0.70 | 10.6 | 1.5 | 2.4 | 12.0 | 17.8% of total injected dose | 63.1 | 26.9% of total injected dose | 8.0 | 1.49 | 17.8 |  | O=C(O)CCCC(=O)NCCNC(=S)Nc1ccc(CC(CN(CC(=O)O)CC(=O)O)N(CC(=O)O)CC(=O)O)cc1 (stereo not drawn) [GNUBE] | 1.65 |  |

Second part, the compound before the results:

| SMILES | % DOSE PER GRAM, KIDNEY (T-380 tumors; 24 hours) [% DOSE PER GRAM] | % DOSE PER GRAM, LIVER (T-380 tumors; 24 hours) [% DOSE PER GRAM] | % DOSE PER GRAM, TUMOR (T-380 tumors; 24 hours) [% DOSE PER GRAM] | FECES (T-380 tumors; 24 hours) | TOTAL RECOV (T-380 tumors; 24 hours) | URINE (T-380 tumors; 24 hours) | % DOSE PER GRAM, BLOOD (T-380 tumors; 24 hours) [% DOSE PER GRAM] | TUMOR/BLOOD (T-380 tumors; 24 hours) | Percent Injected Dose in Feces (T-380 tumors; 24 hrs.) [Percent Injected Dose] | % DOSE PER GRAM, KIDNEY (T-380 tumors; 48 hours) [% DOSE PER GRAM] | % DOSE PER GRAM, LIVER (T-380 tumors; 48 hours) [% DOSE PER GRAM] | % DOSE PER GRAM, TUMOR (T-380 tumors; 48 hours) [% DOSE PER GRAM] | FECES (T-380 tumors; 48 hours) | TOTAL RECOV (T-380 tumors; 48 hours) | URINE (T-380 tumors; 48 hours) | % DOSE PER GRAM, BLOOD (T-380 tumors; 48 hours) [% DOSE PER GRAM] | TUMOR/BLOOD (T-380 tumors; 48 hours) | Percent Injected Dose in Feces (T-380 tumors; 48 hrs.) [Percent Injected Dose] | amount of hapten in the tumor (T-380 tumors; 24 hrs.) | t1/2, Dissociation Half-Lives [1] [h] | also measured |
| --- | --- | --- | --- | --- | --- | --- | --- | --- | --- | --- | --- | --- | --- | --- | --- | --- | --- | --- | --- | --- | --- |
| CC(=O)NC(CCCCNC(=S)Nc1ccc(CC(CN(CC(=O)O)CC(=O)O)N(CC(=O)O)CC(=O)O)cc1)C(N)=O (stereo not drawn) [BALTUBE] | 3.6 | 4.0 | 13.0 | 6.8% of total injected dose | 52.0 | 16.3% of total injected dose | 11.0 | 1.18 | 8.5 | 1.9 | 2.2 | 12.9 | 13.8% of total injected dose | 57.8 | 26.5% of total injected dose | 5.2 | 2.48 | 13.8 |  | 1.52 |  |
| O=C(O)CN(CC(=O)O)CC(Cc1ccc(NC(=S)NCc2ccccc2)cc1)N(CC(=O)O)CC(=O)O (stereo not drawn) [BETUBE] | 2.5 | 2.7 | 8.0 | 17.4% of total injected dose | 44.6 | 8.4% of total injected dose | 9.0 | 0.89 | 17.4 | 1.5 | 1.9 | 7.5 | 29.0% of total injected dose | 54.2 | 12.0% of total injected dose | 5.5 | 1.36 | 29.0 |  | 1.57 |  |
| CCNC(=S)Nc1ccc(CC(CN(CC(=O)O)CC(=O)O)N(CC(=O)O)CC(=O)O)cc1 (stereo not drawn) [ETUBE] | 2.4 | 3.5 | 8.0 | 5.9% of total injected dose | 52.2 | 25.8% of total injected dose | 10.4 | 0.77 | 6.7 | 1.2 | 2.4 | 10.4 | 15.2% of total injected dose | 66.6 | 36.0% of total injected dose | 5.9 | 1.76 | 15.2 | 8.0 percent injected dose/gram | 1.21 | injected material excreted in the feces (T-380 tumors): 15.2% of the injected material; amount of hapten in the tumor (T-380 tumors; 48 hrs.): 10.4 percent injected dose/gram |
